{"source": "ChEMBL document CHEMBL1201862", "about": "“PubChem BioAssay data set” (2004)", "key": {"[1]": {"molecular_target": "T1, Calpain-2 catalytic subunit (Sus scrofa, UniProt P43367)", "T1 sequence (P43367 whole entry)": "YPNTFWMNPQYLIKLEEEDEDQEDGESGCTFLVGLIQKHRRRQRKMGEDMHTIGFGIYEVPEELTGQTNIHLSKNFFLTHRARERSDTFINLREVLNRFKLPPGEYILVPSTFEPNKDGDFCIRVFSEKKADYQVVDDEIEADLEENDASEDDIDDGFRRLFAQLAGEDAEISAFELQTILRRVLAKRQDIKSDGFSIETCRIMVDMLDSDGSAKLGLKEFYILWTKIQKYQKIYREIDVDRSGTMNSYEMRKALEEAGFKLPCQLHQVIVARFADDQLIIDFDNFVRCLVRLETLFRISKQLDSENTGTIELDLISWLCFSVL", "experiment": "pig calpain II inhibitor potency, dose response, biochemical, fluorogenic peptide substrate (AID 1420)", "type": "functional"}, "[2]": {"molecular_target": "T2, Nuclear receptor subfamily 0 group B member 1 (Homo sapiens, UniProt P51843)", "T2 sequence (P51843 whole entry)": "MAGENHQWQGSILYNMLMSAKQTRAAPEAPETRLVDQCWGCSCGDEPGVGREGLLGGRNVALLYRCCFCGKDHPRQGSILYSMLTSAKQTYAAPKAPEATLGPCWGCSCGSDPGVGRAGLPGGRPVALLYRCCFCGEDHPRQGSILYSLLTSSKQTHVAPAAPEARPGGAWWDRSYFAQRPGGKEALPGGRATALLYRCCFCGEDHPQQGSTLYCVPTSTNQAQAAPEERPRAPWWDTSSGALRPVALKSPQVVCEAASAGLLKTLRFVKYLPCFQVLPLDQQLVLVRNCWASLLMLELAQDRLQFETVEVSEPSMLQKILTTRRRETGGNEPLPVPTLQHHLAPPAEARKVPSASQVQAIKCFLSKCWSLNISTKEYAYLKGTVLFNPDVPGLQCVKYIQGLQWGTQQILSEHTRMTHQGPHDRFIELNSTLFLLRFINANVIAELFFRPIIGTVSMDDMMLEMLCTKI", "type": "functional, cell-based"}, "[3]": {"experiment": "cells", "type": "functional, cell-based"}, "[4]": {"experiment": "Luminescence Cell-Based Dose Confirmation HTS to Identify Activators of 5'UTR Stem-Loop Driven Alpha-Synuclein mRNA Translation in H4 Neuroglioblastoma Cells. [Related pubchem assays: 1829 (Project Summary), 1814 (Primary HTS)]", "type": "functional"}, "[5]": {"test_system": "H4", "experiment": "Luminescence Cell-Based Dose Response HTS to Identify Activators of 5'UTR Stem-Loop Driven Prion Protein mRNA Translation in H4 Neuroglioblastoma Cells. [Related pubchem assays: 1829 (Project Summary), 1814 (Primary HTS)]", "type": "functional", "details": "Homo sapiens"}, "[6]": {"experiment": "THP-1 cell cytotoxicity, dose response, cytotoxicity control for non-replicating M. tuberculosis project (AID 489025)", "type": "functional"}, "[7]": {"experiment": "Luminescence Cell-Based Dose Response HTS to Identify Activators of Luciferase Translation or Activity in H4 […] Cells. [Related pubchem assays: 1829 (Project Summary), 1814 (Primary HTS)]", "type": "functional"}, "[8]": {"experiment": "cells", "type": "functional"}, "[9]": {"molecular_target": "Glucose-6-phosphate 1-dehydrogenase (Homo sapiens, UniProt P11413)", "sequence (P11413 whole entry)": "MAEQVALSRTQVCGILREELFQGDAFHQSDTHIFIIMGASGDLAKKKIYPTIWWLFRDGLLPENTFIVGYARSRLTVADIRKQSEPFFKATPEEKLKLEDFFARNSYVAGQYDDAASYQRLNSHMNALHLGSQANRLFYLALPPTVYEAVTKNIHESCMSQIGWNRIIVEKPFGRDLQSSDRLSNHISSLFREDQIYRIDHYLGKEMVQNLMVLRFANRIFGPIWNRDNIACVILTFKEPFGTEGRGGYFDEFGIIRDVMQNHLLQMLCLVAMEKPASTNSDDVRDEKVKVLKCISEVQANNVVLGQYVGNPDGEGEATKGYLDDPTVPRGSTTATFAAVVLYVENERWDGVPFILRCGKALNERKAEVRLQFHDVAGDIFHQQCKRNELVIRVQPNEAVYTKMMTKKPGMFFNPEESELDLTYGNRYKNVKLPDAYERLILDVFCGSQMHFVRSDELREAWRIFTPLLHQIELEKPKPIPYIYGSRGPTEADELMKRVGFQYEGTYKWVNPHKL", "experiment": "human G6PD enzyme inhibitors, dose response, selectivity assay for P. falciparum G6PD inhibitor project, biochemical, fluorescence (AID 504792)", "type": "functional"}, "[10]": {"experiment": "cytotoxicity toward NIH3T3 fibroblasts, dose response, counter-screen, cell-based, ATP luminescence, mouse fibroblasts (AID 2010);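 note: cells exposed to compound for about 90 hours before reading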", "type": "functional"}, "[11]": {"experiment": "inhibitors of intracellular T. cruzi replication, confirmation, NIH3T3 host cells, beta-gal luminescence (AID 2044);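 note: luminescent beta-galactosidase reporter signal from transgenic T. cruzi replicating inside host cells; inhibitors lower the luminescence signal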", "type": "functional, cell-based"}, "[12]": {"molecular_target": "T3, Protein RecA (Mycobacterium tuberculosis, UniProt P9WHJ3)", "T3 sequence (P9WHJ3 whole entry)": "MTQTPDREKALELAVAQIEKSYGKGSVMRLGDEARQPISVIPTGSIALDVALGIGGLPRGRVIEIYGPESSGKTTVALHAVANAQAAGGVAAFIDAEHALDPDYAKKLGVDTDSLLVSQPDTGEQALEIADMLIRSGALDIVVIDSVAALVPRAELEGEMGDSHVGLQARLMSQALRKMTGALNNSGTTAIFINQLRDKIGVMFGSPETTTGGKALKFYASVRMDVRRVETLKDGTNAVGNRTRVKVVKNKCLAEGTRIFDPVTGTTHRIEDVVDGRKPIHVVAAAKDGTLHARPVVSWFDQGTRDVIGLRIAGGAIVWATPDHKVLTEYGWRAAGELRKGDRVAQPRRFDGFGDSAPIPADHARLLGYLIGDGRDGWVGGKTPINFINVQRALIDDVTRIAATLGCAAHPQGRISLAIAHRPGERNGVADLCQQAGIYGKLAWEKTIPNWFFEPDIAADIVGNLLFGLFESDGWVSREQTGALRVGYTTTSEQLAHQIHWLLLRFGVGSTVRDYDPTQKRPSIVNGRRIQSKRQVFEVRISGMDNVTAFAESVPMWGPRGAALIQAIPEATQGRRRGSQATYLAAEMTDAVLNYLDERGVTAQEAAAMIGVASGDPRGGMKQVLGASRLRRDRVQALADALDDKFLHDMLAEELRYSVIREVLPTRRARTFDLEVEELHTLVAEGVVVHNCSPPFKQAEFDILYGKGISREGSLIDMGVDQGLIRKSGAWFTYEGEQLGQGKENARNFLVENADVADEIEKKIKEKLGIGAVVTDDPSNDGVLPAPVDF", "experiment": "Fluorescence Cell-Free Homogeneous Dose Retest to Identify Inhibitors of RecA-Intein Splicing Activity. [Related pubchem assays (depositor defined):AID2097, AID2223, AID489010, AID492950]", "type": "functional"}, "[13]": {"molecular_target": "T4, Replicative DNA helicase DnaB (Mycobacterium tuberculosis, UniProt P9WMR3)", "T4 sequence (P9WMR3 whole entry)": "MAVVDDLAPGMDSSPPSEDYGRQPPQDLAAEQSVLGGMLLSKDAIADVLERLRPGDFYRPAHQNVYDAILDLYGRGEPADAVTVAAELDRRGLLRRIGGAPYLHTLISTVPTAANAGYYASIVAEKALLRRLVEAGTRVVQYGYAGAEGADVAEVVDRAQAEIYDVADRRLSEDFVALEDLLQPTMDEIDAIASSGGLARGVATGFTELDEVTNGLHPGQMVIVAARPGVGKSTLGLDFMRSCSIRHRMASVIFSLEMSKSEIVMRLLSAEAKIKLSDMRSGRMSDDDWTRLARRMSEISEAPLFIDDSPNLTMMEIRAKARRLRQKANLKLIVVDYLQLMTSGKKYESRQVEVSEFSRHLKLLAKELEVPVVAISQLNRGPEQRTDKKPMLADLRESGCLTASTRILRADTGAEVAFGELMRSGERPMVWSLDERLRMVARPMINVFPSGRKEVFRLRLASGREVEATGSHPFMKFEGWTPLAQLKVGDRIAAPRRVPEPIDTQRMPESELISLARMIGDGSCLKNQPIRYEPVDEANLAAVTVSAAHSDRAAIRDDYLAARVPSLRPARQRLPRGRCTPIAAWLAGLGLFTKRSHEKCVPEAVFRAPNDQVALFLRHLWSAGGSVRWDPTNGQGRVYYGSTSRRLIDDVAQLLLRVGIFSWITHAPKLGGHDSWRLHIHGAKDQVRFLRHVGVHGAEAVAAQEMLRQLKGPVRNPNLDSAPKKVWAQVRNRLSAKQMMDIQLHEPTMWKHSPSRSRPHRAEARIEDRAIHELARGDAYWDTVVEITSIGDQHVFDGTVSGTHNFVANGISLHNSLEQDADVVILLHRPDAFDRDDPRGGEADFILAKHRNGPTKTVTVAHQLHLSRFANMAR", "experiment": "DnaB intein splicing inhibitors, dose response, biochemical, cell-free fluorescence (AID 449749)", "type": "functional"}}, "note": "Activity calls are given as the source filed them."}
{"smiles": "Cc1nc2ccccc2[nH]c(=O)c1=NNc1ccc([N+](=O)[O-])cc1", "values": [{"measurement": "IC50", "setting": "[1]", "value": "12.3 µM (not active)"}]}
{"smiles": "CN1CCN(C(=O)c2ccc3c(Cl)c4c(nc3c2)CCCC4)CC1", "values": [{"measurement": "IC50", "setting": "[2]", "value": "> 67.6 µM (inactive)"}, {"measurement": "IC50", "setting": "[3]", "value": "> 67.6 µM (inactive)"}]}
{"smiles": "CC(C)Cn1c(-c2ccc(Br)cc2)cnc1S", "values": [{"measurement": "IC50", "setting": "[1]", "value": "12.1 µM (active)"}]}
{"smiles": "COc1cc(OC)c2c(-c3cccc(-c4ccc(NC(C)=O)cc4)c3)cc(=O)oc2c1", "values": [{"measurement": "IC50", "setting": "[2]", "value": "> 67.5 µM (inactive)"}, {"measurement": "IC50", "setting": "[3]", "value": "> 67.5 µM (inactive)"}]}
{"smiles": "COc1ccc(NC(=O)c2cnc(SC)nc2)cc1", "values": [{"measurement": "EC50", "setting": "[4]", "value": "> 120 µM (not active)"}, {"measurement": "EC50", "setting": "[5]", "value": "16 µM (active)"}, {"measurement": "CC50", "setting": "[6]", "value": "18.1 µM (active)"}, {"measurement": "EC50", "setting": "[7]", "value": "14.8 µM (active)"}, {"measurement": "IC50", "setting": "[8]", "value": "18.4 µM (active)"}]}
{"smiles": "CCOc1ccc(NC(=NCc2ccc3c(c2)OCO3)SC2CC(=O)N(c3ccc(OCC)cc3)C2=O)cc1", "note": "(stereo not given)", "values": [{"measurement": "IC50", "setting": "[1]", "value": "> 50 µM (not active)"}]}
{"smiles": "CCn1c(SCC(=O)Nc2ccccc2OC)nnc1-c1cnccn1", "values": [{"measurement": "IC50", "setting": "[9]", "value": "> 80 µM (inactive)"}]}
{"smiles": "CN1C(=O)CSc2ccc(NC(=O)N3CCc4ccccc43)cc21", "values": [{"measurement": "IC50", "setting": "[2]", "value": "> 67.5 µM (inactive)"}, {"measurement": "IC50", "setting": "[9]", "value": "> 80 µM (inactive)"}, {"measurement": "IC50", "setting": "[3]", "value": "> 67.5 µM (inactive)"}]}
{"smiles": "CCCCCOc1ccc(CSC2=NCCN2)cc1[N+](=O)[O-]", "values": [{"measurement": "EC50", "setting": "[4]", "value": "14.1 µM (active)"}, {"measurement": "EC50", "setting": "[5]", "value": "22.2 µM (active)"}, {"measurement": "CC50", "setting": "[6]", "value": "> 40 µM (active)"}, {"measurement": "EC50", "setting": "[7]", "value": "> 120 µM (not active)"}, {"measurement": "EC50", "setting": "[10]", "value": "> 60 µM (not active)"}, {"measurement": "EC50", "setting": "[11]", "value": "0.534 µM (active)"}]}
{"smiles": "CCOc1ccccc1CNc1ccc(O)cc1", "values": [{"measurement": "IC50", "setting": "[9]", "value": "> 80 µM (inactive)"}, {"measurement": "EC50", "setting": "[12]", "value": "14 µM (active)"}, {"measurement": "AC50", "setting": "[13]", "value": "> 380 µM (inactive)"}]}
{"smiles": "CC(NC(=O)c1cc2cc(Br)ccc2oc1=N)c1ccccc1", "note": "(stereo not given)", "values": [{"measurement": "CC50", "setting": "[6]", "value": "24.6 µM (active)"}, {"measurement": "IC50", "setting": "[8]", "value": "33.6 µM (active)"}]}
{"smiles": "Cc1cc(C)nc(SC2CC(=O)N(c3ccc(C)c(C)c3)C2=O)n1", "note": "(stereo not given)", "values": [{"measurement": "CC50", "setting": "[6]", "value": "> 40 µM (active)"}]}
{"smiles": "Cc1cc(NC(=O)NC(=O)c2ccccc2F)no1", "values": [{"measurement": "IC50", "setting": "[2]", "value": "> 67.5 µM (inactive)"}, {"measurement": "IC50", "setting": "[3]", "value": "> 67.5 µM (inactive)"}]}
